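All cell lines were grown in 96-well plates and treated with compound for 48 hours. GI50 = concentration required for 50% inhibition of growth.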 Activity calls are given as the source filed them. Rule as the data show it: active = GI50 up to about 1.1 µM and inactive = higher.
Columns and labels:
Assay in all cases: NCI-60 cell line screen, 48 h
NCI-H226 = system: NCI-H226
IGROV-1 = system: IGROV-1
DMS-273 = system: DMS-273
SNB-78 = system: SNB-78
M14 = system: M14
DMS-114 = system: DMS-114
LXFL 529 = system: LXFL 529
A549 = system: A549
SR = system: SR
HCC 2998 = system: HCC 2998
SNB-75 = system: SNB-75
HOP-62 = system: HOP-62
OVCAR-5 = system: OVCAR-5
HL-60 = system: HL-60
NCI/ADR-RES = system: NCI/ADR-RES
HOP-92 = system: HOP-92
BT-549 = system: BT-549
MDA-MB-231 = system: MDA-MB-231
MDA-MB-435 = system: MDA-MB-435
T47D = system: T47D

| Compound | GI50 (NCI-H226) | GI50 (IGROV-1) | GI50 (DMS-273) | GI50 (SNB-78) | GI50 (M14) | GI50 (DMS-114) | GI50 (LXFL 529) | GI50 (A549) | GI50 (SR) | GI50 (HCC 2998) | GI50 (SNB-75) | GI50 (HOP-62) | GI50 (OVCAR-5) | GI50 (HL-60) | GI50 (NCI/ADR-RES) | GI50 (HOP-92) | GI50 (BT-549) | GI50 (MDA-MB-231) | GI50 (MDA-MB-435) | GI50 (T47D) |
| --- | --- | --- | --- | --- | --- | --- | --- | --- | --- | --- | --- | --- | --- | --- | --- | --- | --- | --- | --- | --- |
| COc1ccc(/C(Cl)=C(\C=O)c2ccc(OC)cc2)cc1 | > 100 µM (inactive) | > 100 µM (inactive) | 37 µM (inactive) | > 100 µM (inactive) | > 100 µM (inactive) | > 100 µM (inactive) | > 100 µM (inactive) | 46.9 µM (inactive) | 10.8 µM (inactive) | > 100 µM (inactive) | > 100 µM (inactive) | > 100 µM (inactive) | > 100 µM (inactive) | 15.9 µM (inactive) | – | – | – | – | – | – |
| O=[N+]([O-])c1ccc(C2=Nc3ccccc3SC(c3ccccc3)C2)cc1 (stereo not drawn) | 21.7 µM (inactive) | 16 µM (inactive) | 13.3 µM (inactive) | 23.6 µM (inactive) | 19.4 µM (inactive) | 18.2 µM (inactive) | 17.8 µM (inactive) | 20.4 µM (inactive) | 18.2 µM (inactive) | 15.2 µM (inactive) | 18.1 µM (inactive) | 20.7 µM (inactive) | 19.5 µM (inactive) | 16.5 µM (inactive) | – | – | – | – | – | – |
| N[C@@H](CSCSC[C@H](N)C(=O)O)C(=O)O | > 225 µM (inactive) | > 225 µM (inactive) | > 225 µM (inactive) | 126 µM (inactive) | – | > 225 µM (inactive) | – | > 225 µM (inactive) | – | > 225 µM (inactive) | > 225 µM (inactive) | > 225 µM (inactive) | > 225 µM (inactive) | 185 µM (inactive) | > 104 µM (inactive) | > 169 µM (inactive) | – | – | – | – |
| N=c1c2c(=S)n(-c3ccccc3)c(=S)n(-c3ccccc3)c2nc(SCCCN2CCN(c3cccc(Cl)c3)CC2)n1-c1ccccc1 | 98.6 µM (inactive) | 97.7 µM (inactive) | – | – | – | – | – | – | > 100 µM (inactive) | > 100 µM (inactive) | 78.5 µM (inactive) | 44.7 µM (inactive) | 26.4 µM (inactive) | > 100 µM (inactive) | > 100 µM (inactive) | 42.3 µM (inactive) | > 100 µM (inactive) | 22.8 µM (inactive) | 73.8 µM (inactive) | – |
| CC(C)=CC(=O)OC1C2C(C)=CC(O)C(O)C2(C)C2C3(O)OCC24C(CC(=O)OC14)C(C)C3O (stereo not drawn) | 0.106 µM (active) | 0.0581 µM (active) | 0.0264 µM (active) | 0.272 µM (active) | – | 0.0162 µM (active) | – | 1.16 µM (inactive) | – | 0.101 µM (active) | 0.111 µM (active) | 0.168 µM (active) | 0.802 µM (active) | 0.0251 µM (active) | 17.5 µM (inactive) | 0.0552 µM (active) | – | – | – | – |
| CC1OC(O)CC(OC(=O)c2ccccc2)C1OC(=O)c1ccccc1 (stereo not drawn) | – | 12.4 µM (inactive) | 14.5 µM (inactive) | – | 16.7 µM (inactive) | – | 16.2 µM (inactive) | > 100 µM (inactive) | 13.2 µM (inactive) | 43.6 µM (inactive) | – | 71.6 µM (inactive) | > 100 µM (inactive) | 13.6 µM (inactive) | – | 20 µM (inactive) | – | – | – | – |
| Nc1cc(S(=O)(=O)O)cc2cc(S(=O)(=O)O)c(/N=N/c3ccc(-c4ccc(/N=N/c5c(S(=O)(=O)O)cc6cc(S(=O)(=O)O)cc(N)c6c5O)cc4)cc3)c(O)c12 | > 100 µM (inactive) | > 100 µM (inactive) | > 100 µM (inactive) | > 100 µM (inactive) | – | > 100 µM (inactive) | – | > 100 µM (inactive) | – | > 100 µM (inactive) | > 100 µM (inactive) | > 100 µM (inactive) | > 100 µM (inactive) | > 100 µM (inactive) | > 100 µM (inactive) | > 71.9 µM (inactive) | – | – | – | – |
| CNc1ccccc1-c1nc2ccccc2c(=O)o1 | > 100 µM (inactive) | 74.1 µM (inactive) | > 100 µM (inactive) | 55.3 µM (inactive) | > 100 µM (inactive) | > 100 µM (inactive) | > 100 µM (inactive) | > 100 µM (inactive) | > 100 µM (inactive) | > 100 µM (inactive) | 27.4 µM (inactive) | – | > 100 µM (inactive) | > 100 µM (inactive) | – | – | – | – | – | – |
| CC1(C)CC[C@]2(C)CC[C@]3(C)C(=CC[C@@H]4[C@@]5(C)CCC(=O)C(C)(C)[C@@H]5[C@H](O)C[C@]43C)[C@@H]2C1 | – | 17 µM (inactive) | – | – | 19 µM (inactive) | – | – | 20.3 µM (inactive) | – | 15.5 µM (inactive) | – | 17 µM (inactive) | 16 µM (inactive) | 29.5 µM (inactive) | 19.6 µM (inactive) | 17.5 µM (inactive) | 20.5 µM (inactive) | 11.5 µM (inactive) | 19.9 µM (inactive) | 17.3 µM (inactive) |
| COC(=O)c1ccc(/C=C2\N=C(C)OC2=O)cc1 | > 100 µM (inactive) | > 100 µM (inactive) | > 100 µM (inactive) | – | > 100 µM (inactive) | > 100 µM (inactive) | > 100 µM (inactive) | > 100 µM (inactive) | – | > 100 µM (inactive) | > 100 µM (inactive) | > 100 µM (inactive) | > 100 µM (inactive) | > 100 µM (inactive) | – | > 100 µM (inactive) | – | – | – | – |
| CSCC(CO)NC(=O)/C=C/c1c(C)[nH]c(=O)[nH]c1=O (stereo not drawn) | 752 µM (inactive) | > 875 µM (inactive) | > 838 µM (inactive) | > 853 µM (inactive) | – | 164 µM (inactive) | – | > 875 µM (inactive) | – | 85.1 µM (inactive) | 444 µM (inactive) | 596 µM (inactive) | 352 µM (inactive) | 197 µM (inactive) | 621 µM (inactive) | 318 µM (inactive) | – | – | – | – |
| CC(=O)OC/C=C\Cn1ncc(=O)[nH]c1=O | 18 µM (inactive) | 17.9 µM (inactive) | – | – | 19 µM (inactive) | – | – | 22.9 µM (inactive) | – | 19 µM (inactive) | 16.7 µM (inactive) | 20.8 µM (inactive) | 17.9 µM (inactive) | 11.3 µM (inactive) | 23.1 µM (inactive) | 15.8 µM (inactive) | – | 34 µM (inactive) | 18.2 µM (inactive) | 22.1 µM (inactive) |
| CN1C2CCC1CC(C)(O)C2 (stereo not drawn) | > 100 µM (inactive) | – | – | – | > 100 µM (inactive) | – | – | – | > 100 µM (inactive) | > 100 µM (inactive) | – | > 100 µM (inactive) | – | > 100 µM (inactive) | > 100 µM (inactive) | – | > 100 µM (inactive) | > 100 µM (inactive) | > 100 µM (inactive) | > 100 µM (inactive) |
| COC(=O)/C=C(\C)CCC1SC1(C)C (stereo not drawn) | > 100 µM (inactive) | > 100 µM (inactive) | > 100 µM (inactive) | > 100 µM (inactive) | > 100 µM (inactive) | 91.8 µM (inactive) | > 100 µM (inactive) | > 100 µM (inactive) | – | > 100 µM (inactive) | > 100 µM (inactive) | > 100 µM (inactive) | > 100 µM (inactive) | > 100 µM (inactive) | – | – | – | – | – | – |
| C/C(=N\O)C1CC(CC(=O)O)C1(C)C (stereo not drawn) | > 100 µM (inactive) | > 100 µM (inactive) | – | – | > 100 µM (inactive) | – | – | > 100 µM (inactive) | > 100 µM (inactive) | 90.2 µM (inactive) | > 100 µM (inactive) | > 100 µM (inactive) | > 100 µM (inactive) | > 100 µM (inactive) | > 100 µM (inactive) | > 100 µM (inactive) | > 100 µM (inactive) | > 100 µM (inactive) | > 100 µM (inactive) | > 100 µM (inactive) |
| S=C1SC(=N\c2ccccc2)/C(=N/c2ccccc2)N1c1ccccc1 | > 100 µM (inactive) | > 100 µM (inactive) | – | – | > 100 µM (inactive) | – | – | – | > 100 µM (inactive) | > 100 µM (inactive) | 19 µM (inactive) | 28 µM (inactive) | > 100 µM (inactive) | > 10 µM (inactive) | > 100 µM (inactive) | – | > 100 µM (inactive) | > 100 µM (inactive) | > 100 µM (inactive) | > 100 µM (inactive) |
| CCOCCOc1ccc(OCCOCC)cc1 | 31.9 µM (inactive) | 20 µM (inactive) | 21.6 µM (inactive) | > 42.7 µM (inactive) | – | 4.51 µM (inactive) | – | 37.6 µM (inactive) | – | 37.3 µM (inactive) | 18.8 µM (inactive) | > 100 µM (inactive) | > 100 µM (inactive) | 3.4 µM (inactive) | 16.4 µM (inactive) | – | – | – | – | – |
| O=C(c1ccco1)C1CC(c2c(O)ccc3ccccc23)=NN1 (stereo not drawn) | 15.2 µM (inactive) | 13.3 µM (inactive) | – | – | 11.9 µM (inactive) | – | – | – | 2.72 µM (inactive) | 12.1 µM (inactive) | 11.8 µM (inactive) | 13.8 µM (inactive) | 14.9 µM (inactive) | 13.5 µM (inactive) | 17.9 µM (inactive) | 13.6 µM (inactive) | 14.9 µM (inactive) | 13.2 µM (inactive) | 4.55 µM (inactive) | 3.33 µM (inactive) |
| Nc1n[nH]c(CCCCCCCc2nnc(N)[nH]2)n1 | – | – | – | > 100 µM (inactive) | > 100 µM (inactive) | > 100 µM (inactive) | > 100 µM (inactive) | – | > 100 µM (inactive) | > 100 µM (inactive) | > 100 µM (inactive) | > 100 µM (inactive) | > 100 µM (inactive) | > 100 µM (inactive) | – | – | – | – | – | – |

From ChEMBL document CHEMBL1201862, “PubChem BioAssay data set” (2004)
